# Results taken from ChEMBL document CHEMBL4229536, “In vitro and in vivo pharmacokinetic and pharmacodynamic study of MBRI-001, a deuterium-substituted plinabulin derivative as a potent anti-cancer agent” (Bioorg Med Chem, 2018).
# Legend:
# Mus musculus [1] = assay: Toxicity in nude mouse xenografted with human NCI-H460 cells assessed as body weight at 6 mg/kg, iv administered once in every 2 days for 14 consecutive days cotreated with 50 mg/kg gefitinib once daily for 14 consecutive days (reference value: 20.6 +/- 1.5 g); format: organism-based; conditions: in vivo, 48 h
# [2] = Drug uptake in Wistar rat small intestine at 6 mg/kg, iv measured after 4 hrs; format: ADME, organism-based; conditions: in vivo
# NCI-H460 [3] = assay: Antitumor activity against human NCI-H460 cells xenografted in nude mouse assessed as inhibition of tumor weight at 6 mg/kg, iv administered once in every 2 days for 14 consecutive days cotreated with 50 mg/kg gefitinib once daily for 14 consecutive days relative to control; format: functional
# [4] = Apparent volume of distribution in Wistar rat at 8 mg/kg, iv; format: ADME, organism-based; conditions: in vivo, read-out: Vz
# NCI-H460 [5] = assay: Antitumor activity against human NCI-H460 cells xenografted in nude mouse assessed as inhibition of tumor volume at 9 mg/kg, iv administered once in every 2 days for 14 consecutive days relative to control; format: functional; conditions: 48 h
# [6] = Drug excretion in Wistar rat feces at 4 mg/kg, iv measured after 2 hrs; format: ADME, organism-based; conditions: faeces, read-out: Drug excretion
# [7] = Drug uptake in Wistar rat spleen at 6 mg/kg, iv measured after 1 hr; format: ADME, organism-based; conditions: in vivo
# [8] = Drug excretion in Wistar rat urine at 4 mg/kg, iv measured after 108 hrs; format: ADME, organism-based; conditions: read-out: Drug excretion
# [9] = Drug uptake in Wistar rat lungs at 6 mg/kg, iv measured after 8 hrs; format: ADME, organism-based, Lung; conditions: in vivo
# [10] = Drug uptake in Wistar rat brain at 6 mg/kg, iv measured after 1 hr; format: ADME, organism-based; conditions: in vivo
# [11] = Drug uptake in Wistar rat spleen at 6 mg/kg, iv measured after 4 hrs; format: ADME, organism-based; conditions: in vivo
# [12] = Cmax in Wistar rat at 4 mg/kg, iv; format: ADME, organism-based; design: dose 4 mg/kg, route intravenous; conditions: in vivo
# [13] = Stability in rat liver microsomes at 50 uM after 270 mins in presence of NADPH by LC-MS/MS analysis; format: ADME, microsome; conditions: 4.5 h
# [14] = Drug excretion in Wistar rat urine at 4 mg/kg, iv measured after 4 hrs; format: ADME, organism-based; conditions: read-out: Drug excretion
# Mus musculus [15] = assay: Toxicity in Balb/c mouse assessed as decrease in body weight at 10 to 15 mg/kg, iv administered three times in a day every 2 days for 15 consecutive days; format: organism-based; conditions: in vivo, 48 h
# [16] = Drug uptake in Wistar rat large intestine at 6 mg/kg, iv measured after 0.5 hrs; format: ADME, organism-based; conditions: in vivo
# [17] = Drug excretion in Wistar rat urine at 4 mg/kg, iv measured after 36 hrs; format: ADME, organism-based; conditions: read-out: Drug excretion
# Cytochrome P450 2C9 = Cytochrome P450 2C9 (Homo sapiens, UniProt P11712); assay: Inhibition of CYP2C9 in human liver microsomes preincubated for 10 mins followed by NADPH addition measured after 10 mins by LC-MS/MS analysis; format: ADME
# Chain of Cytochrome P450 2C9 (P11712 whole entry): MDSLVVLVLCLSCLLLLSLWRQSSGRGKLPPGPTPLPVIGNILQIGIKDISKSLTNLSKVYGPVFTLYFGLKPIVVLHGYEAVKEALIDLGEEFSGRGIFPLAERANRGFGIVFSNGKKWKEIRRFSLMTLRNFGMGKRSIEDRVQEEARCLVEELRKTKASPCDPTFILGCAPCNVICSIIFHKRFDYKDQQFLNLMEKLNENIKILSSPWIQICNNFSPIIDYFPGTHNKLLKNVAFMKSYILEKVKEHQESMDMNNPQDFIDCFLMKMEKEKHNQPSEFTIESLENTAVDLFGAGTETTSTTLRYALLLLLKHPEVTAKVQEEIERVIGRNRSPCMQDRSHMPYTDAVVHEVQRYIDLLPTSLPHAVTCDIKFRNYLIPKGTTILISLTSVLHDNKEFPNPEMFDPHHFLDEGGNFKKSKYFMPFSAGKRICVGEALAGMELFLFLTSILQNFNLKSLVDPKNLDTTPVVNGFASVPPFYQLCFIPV
# Mus musculus [18] = assay: Toxicity in nude mouse xenografted with human NCI-H460 cells assessed as body weight at 9 mg/kg, iv administered once in every 2 days for 14 consecutive days (reference value: 20.6 +/- 1.5 g); format: organism-based; conditions: in vivo, 48 h
# [19] = Cmax in Wistar rat at 8 mg/kg, iv; format: ADME, organism-based; design: dose 8 mg/kg, route intravenous; conditions: in vivo
# [20] = Drug uptake in Wistar rat lungs at 6 mg/kg, iv measured after 1 hr; format: ADME, organism-based, Lung; conditions: in vivo
# [21] = Drug excretion in Wistar rat urine at 4 mg/kg, iv measured after 0.5 hrs; format: ADME, organism-based; conditions: read-out: Drug excretion
# NCI-H460 [22] = assay: Antitumor activity against human NCI-H460 cells xenografted in nude mouse assessed as inhibition of tumor volume at 3 mg/kg, iv administered once in every 2 days for 14 consecutive days relative to control; format: functional; conditions: 48 h
# NCI-H460 [23] = assay: Antitumor activity against human NCI-H460 cells xenografted in nude mouse assessed as inhibition of tumor volume at 6 mg/kg, iv administered once in every 2 days for 14 consecutive days cotreated with 50 mg/kg gefitinib once daily for 14 consecutive days relative to control; format: functional
# [24] = Stability in rat plasma at 1 uM after 5 mins by LC-MS/MS analysis; format: ADME, cell-free; conditions: read-out: Stability
# [25] = Drug uptake in Wistar rat pancreas at 6 mg/kg, iv measured after 12 hrs; format: ADME, organism-based; conditions: in vivo
# Mus musculus [26] = assay: Toxicity in nude mouse xenografted with human NCI-H460 cells assessed as death at 3 to 9 mg/kg, iv administered once in every 2 days for 14 consecutive days; format: organism-based; conditions: in vivo, 48 h
# [27] = Drug uptake in Wistar rat heart at 6 mg/kg, iv measured after 0.5 hrs; format: ADME, organism-based; conditions: in vivo
# [28] = Stability in rat liver microsomes at 50 uM after 20 mins in presence of NADPH by LC-MS/MS analysis; format: ADME, microsome; conditions: read-out: Stability
# [29] = Drug uptake in Wistar rat kidney at 6 mg/kg, iv measured after 0.5 hrs; format: ADME, organism-based; conditions: in vivo
# [30] = Drug excretion in Wistar rat urine at 4 mg/kg, iv measured after 48 hrs; format: ADME, organism-based; conditions: read-out: Drug excretion
# [31] = Drug excretion in Wistar rat feces at 4 mg/kg, iv measured after 24 hrs; format: ADME, organism-based; conditions: faeces, read-out: Drug excretion
# [32] = Drug uptake in Wistar rat pancreas at 6 mg/kg, iv measured after 1 hr; format: ADME, organism-based; conditions: in vivo
# [33] = Drug excretion in Wistar rat feces at 4 mg/kg, iv measured after 108 hrs; format: ADME, organism-based; conditions: faeces, read-out: Drug excretion
# [34] = Drug uptake in Wistar rat liver at 6 mg/kg, iv measured after 4 hrs; format: ADME, organism-based; conditions: in vivo
# [35] = Drug uptake in Wistar rat pancreas at 6 mg/kg, iv measured after 8 hrs; format: ADME, organism-based; conditions: in vivo
# Cytochrome P450 2C19 = Cytochrome P450 2C19 (Homo sapiens, UniProt P33261); assay: Inhibition of CYP2C19 in human liver microsomes preincubated for 10 mins followed by NADPH addition measured after 10 mins by LC-MS/MS analysis; format: ADME
# Chain of Cytochrome P450 2C19 (P33261 whole entry): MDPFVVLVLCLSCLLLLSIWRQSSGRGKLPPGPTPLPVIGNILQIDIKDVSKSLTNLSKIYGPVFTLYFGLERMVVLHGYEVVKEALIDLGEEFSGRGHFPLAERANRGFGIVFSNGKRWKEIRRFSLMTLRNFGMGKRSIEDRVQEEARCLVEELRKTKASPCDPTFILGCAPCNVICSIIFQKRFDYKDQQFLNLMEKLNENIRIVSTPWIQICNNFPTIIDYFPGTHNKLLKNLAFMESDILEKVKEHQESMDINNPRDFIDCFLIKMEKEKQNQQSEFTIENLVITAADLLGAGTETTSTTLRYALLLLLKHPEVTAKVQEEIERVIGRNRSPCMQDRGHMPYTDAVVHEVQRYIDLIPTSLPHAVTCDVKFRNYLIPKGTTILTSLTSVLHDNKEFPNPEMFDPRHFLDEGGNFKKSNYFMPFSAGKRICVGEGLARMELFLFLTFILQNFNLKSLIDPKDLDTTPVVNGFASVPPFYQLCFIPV
# [36] = Drug uptake in Wistar rat pancreas at 6 mg/kg, iv measured after 4 hrs; format: ADME, organism-based; conditions: in vivo
# [37] = Drug uptake in Wistar rat liver at 6 mg/kg, iv measured after 12 hrs; format: ADME, organism-based; conditions: in vivo
# [38] = Stability in rat plasma at 1 uM after 20 mins by LC-MS/MS analysis; format: ADME, cell-free; conditions: read-out: Stability
# [39] = Drug excretion in Wistar rat urine at 4 mg/kg, iv measured after 12 hrs; format: ADME, organism-based; conditions: read-out: Drug excretion
# Mus musculus [40] = assay: Toxicity in Balb/c mouse assessed as mortality at 20 mg/kg, iv administered three times in a day every 2 days for 15 consecutive days; format: organism-based; conditions: in vivo, 48 h
# [41] = Drug uptake in Wistar rat heart at 6 mg/kg, iv measured after 8 hrs; format: ADME, organism-based; conditions: in vivo
# [42] = Drug uptake in Wistar rat small intestine at 6 mg/kg, iv measured after 12 hrs; format: ADME, organism-based; conditions: in vivo
# [43] = Clearance in rat liver microsomes at 50 uM in presence of NADPH by LC-MS/MS analysis; format: ADME, microsome; conditions: read-out: CLH
# [44] = Drug uptake in Wistar rat liver at 6 mg/kg, iv measured after 0.5 hrs; format: ADME, organism-based; conditions: in vivo
# [45] = Drug uptake in Wistar rat large intestine at 6 mg/kg, iv measured after 4 hrs; format: ADME, organism-based; conditions: in vivo
# [46] = Drug uptake in Wistar rat lungs at 6 mg/kg, iv measured after 0.5 hrs; format: ADME, organism-based, Lung; conditions: in vivo
# [47] = Protein binding in human plasma at 2 uM after 4 hrs by LC-MS/MS analysis; format: ADME, cell-free; conditions: read-out: PPB (converted)
# Mus musculus [48] = assay: Toxicity in Balb/c mouse assessed as mortality at 10 to 15 mg/kg, iv administered three times in a day every 2 days for 15 consecutive days; format: organism-based; conditions: in vivo, 48 h
smiles,measurement,setting,value
[2H]/C(c1nc[nH]c1C(C)(C)C)=c1/[nH]c(=O)/c(=C/c2ccccc2)[nH]c1=O,Activity,Mus musculus [1],18.5 g
same,Drug uptake,[2],336.9 ng/mL/g
same,inhibition (INH),NCI-H460 [3],60.5%
same,Vd,[4],16.2 L/kg
same,inhibition in vivo at 9 mg/kg,NCI-H460 [5],68.2%
same,dose excreted at 2 h,[6],0%
same,Drug uptake,[7],7146.9 ng/mL/g
same,dose excreted at 108 h,[8],0.67%
same,Drug uptake,[9],41048.8 ng/mL/g
same,Drug uptake,[10],561 ng/mL/g
same,Drug uptake,[11],1519.6 ng/mL/g
same,Cmax,[12],4420 ng/mL
same,Stability,[13],35.33%
same,dose excreted at 4 h,[14],0.27%
same,Activity,Mus musculus [15],Non-Toxic
same,Drug uptake,[16],1936.4 ng/mL/g
same,dose excreted at 36 h,[17],0.23%
same,IC50,Cytochrome P450 2C9,560 nM
same,Activity,Mus musculus [18],19.9 g
same,Cmax,[19],20100 ng/mL
same,Drug uptake,[20],158342.2 ng/mL/g
same,dose excreted at 0.5 h,[21],0.02%
same,inhibition in vivo at 3 mg/kg,NCI-H460 [22],46.9%
same,inhibition (INH),NCI-H460 [23],67.8%
same,"remaining at 5 min, 1 µM",[24],93.9%
same,Drug uptake,[25],68.2 ng/mL/g
same,Activity,Mus musculus [26],Non-Toxic
same,Drug uptake,[27],2189.8 ng/mL/g
same,"remaining at 20 min, 50 µM",[28],74.8%
same,Drug uptake,[29],7423.8 ng/mL/g
same,dose excreted at 48 h,[30],0.26%
same,dose excreted at 24 h,[31],5.65%
same,Drug uptake,[32],4538.9 ng/mL/g
same,dose excreted at 108 h,[33],6.83%
same,Drug uptake,[34],4220 ng/mL/g
same,Drug uptake,[35],399 ng/mL/g
same,IC50,Cytochrome P450 2C19,3810 nM
same,Drug uptake,[36],1366.3 ng/mL/g
same,Drug uptake,[37],431.7 ng/mL/g
same,"remaining at 20 min, 1 µM",[38],95.8%
same,dose excreted at 12 h,[39],0.14%
same,Activity,Mus musculus [40],Toxic
same,Drug uptake,[41],88 ng/mL/g
same,Drug uptake,[42],36.1 ng/mL/g
same,microsomal CLint at 50 µM,[43],16.3 µL/min/mg
same,Drug uptake,[44],8281 ng/mL/g
same,Drug uptake,[45],359 ng/mL/g
same,Drug uptake,[46],13471.1 ng/mL/g
same,"fraction unbound at 4 h, 2 µM",[47],0.021
same,Activity,Mus musculus [48],Non-Toxic
